Assay results taken from paper PMC6514996, “Discovery of Potent and Selective Halogen-Substituted Imidazole-Thiosemicarbazides for Inhibition of Toxoplasma gondii Growth In Vitro via Structure-Based Design” (Molecules, 2019).
Converted amounts (≈) assume the structure as drawn.

Assays:
[1] = Cytotoxicity against L929 cells, MTT cell viability assay (ISO 10993-5:2009(E)); format: cell-based; settings: mouse, L929 mouse fibroblast cells; for viability at 24 h, 5 µg/mL / viability at 24 h, 25 µg/mL / viability at 24 h, 50 µg/mL / viability at 24 h, 125 µg/mL / viability at 24 h, 250 µg/mL / viability at 24 h, 500 µg/mL / viability at 24 h, 1000 µg/mL: read-out: viability of L929 cells (% of viable cells); for CC50 at 24 h: 50% cell proliferation inhibition, L929 cells
Description: Since T. gondii is an obligate intracellular parasite that requires invasion of mammalian host cells to proliferate, compounds that inhibit parasite growth might be toxic to host cells as well. Therefore, as an initial indicator for host cell toxicity, we firstly evaluated compounds 5–16 for their ability to inhibit the growth of mouse fibroblast (L929) cells line according to the international standards: ISO 10993-5:2009(E).
To calculate the reduction of viability compared to the untreated blank the equation was used: viability (%) = 100% × sample OD570 (the mean value of the measured optical density of the treated cells)/blank OD570 (the mean value of the measured optical density of the untreated cells). CC50—represents the concentration of tested compounds that was required for a 50% cell proliferation inhibition in vitro. The effect of the tested compounds on the cell lines was measured using MTT assay according to the international standard: ISO 10993-5:2009(E). CC50 values were determined based on the plotted curves using GraphPad Prism program (version 8.0.1).
Cell culture: the L929 mouse fibroblast (ATTC® CCL-1™) was routinely cultured in IMDM (Iscove’s Modified Dulbecco Medium, Biowest, Nuaille, France), supplemented with 10% HIFBS, 100 U/mL penicillin and 100 μg/mL streptomycin. Cells were trypsinized twice a week and seeded at a density of 1 × 10^6 per T25 cell culture flask and incubated for 24–48 h in a 37 °C and 10% CO2 to achieve a confluent monolayer.
Cell viability assay: Assays were performed according to international standards: ISO 10993-5:2009(E), Biological evaluation of medical devices, Part 5: Tests for in vitro cytotoxicity. Cell viability were evaluated using the tetrazolium salt [3-(4,5-dimethylthiazol-2-yl)-2,5-diphenyltetrazolium bromide] (Sigma) and mouse fibroblasts L929 cells. For this assay we used only the culture medium, RPMI 1640, without phenol red (Biowest) supplemented with 10% HIFBS, 2 mM L-glutamine (Sigma), 100 U/mL penicillin, 100 μg/mL streptomycin. Shortly after, a 1 × 10^4/well of L929 cells were placed into 96-well plates and incubated in 37 °C and 10% CO2. Afterwards, an old culture medium was replaced by 100 μL of compounds and drugs dilutions in culture medium and the cells were treated for 24 h. Moreover, cells were treated with a 4.0–0.03% concentration of DMSO and 1M NaOH as a compound and drugs solvent (data not shown). Then, 50 μL of 1 mg/mL of MTT solution in RPMI 1640 without phenol red was added to each well and incubated 2h (37 °C, 10% CO2). Next, cell culture medium was aspirated cautiously and 150 μL of DMSO was added to each well, the plates were gently mixed. Then 25 μL 0.1M glycine buffer (pH = 10.5) (Sigma) was added. The optical density at 570 nm on the ELISA reader (Multiskan EX, Labsystems, Vienna, VA, USA), was read. The results were expressed as a percentage of viability compared to untreated cells. All experiments were performed in triplicate. For comparison reasons, two compounds known from our previous studies (6 and 9) were included in the bioassay performed for compounds 5, 7, 8, 9–16.

[2] = tested on: Toxoplasma gondii RH strain tachyzoites (ATCC PRA 310); test: Influence on T. gondii proliferation in Hs27 cells, [3H]-uracil incorporation assay; format: cell-based; settings: for IC50: Toxoplasma gondii, HS27, 50% inhibition of T. gondii RH proliferation in vitro, Hs27 host cells, [3H]-uracil incorporation; for SR (selectivity ratio): ratio of CC50 (L929) to IC50 (T. gondii)
[3] = Lipophilicity by HPLC (logkw extrapolation, OECD guideline); format: physicochemical; settings: Phenomenex Synergi 4 µm Polar-RP column, methanol:water, calibration with seven standards
Experimental: HPLC experiments were performed using a chromatograph equipped with an Elite LaChrom L-2130 gradient pump, L-2455 DAD detector, L-2300 column oven, and L-2200 autosampler (Hitachi-Merck, Darmstadt, Germany). The tested samples were applied into the Phenomenex Synergi 4 µm Polar-RP chromatographic column (Phenomenex, Torrance, CA, USA) (150 mm length, 4.6 mm i.d.). Mobile phases were degassed using a built-in membrane degasser.
Chromatographic analysis: 5 µL of each sample (0.1% methanolic solutions) was applied into the chromatographic column and chromatograms were developed at a flow rate of 1.0 mL min^−1 in the isocratic mode using various concentrations of methanol in the binary polar mobile phase: methanol:water (40:60, 45:55, 50:50, 55:45, 60:40, 65:35, and 70:30 (v/v)) Chromatograms were detected at 254 nm. All experiments were repeated in triplicate, and the final results were their arithmetic mean. Dead time was measured for uracil (Calbiochem—Merck, Darmstadt, Germany). All the experiments were performed at ambient temperature.
The chromatographic lipophilicity parameter (logkw) for 5–16 was obtained by the extrapolation of the retention parameter logk to pure water, according to the equation: logk = logkw − S × φ(1) where logkw is the value of the retention factor of a substance in pure water, S is the slope of the regression curve, and φ is the concentration (v/v) of methanol in the mobile phase.
Subsequently, logPHPLC parameters for 5–16 were calculated according to OECD guidelines, based on the equation obtained for seven standards with known lipohilicity parameters (logPo/w): logPo/w = 1.0239(± 0.03)·logkw − 0.1541(± 0.08); n = 7; r = 0.9976; se = 0.08; F = 1047.8(2)

Question: What does the source list for `Cc1nc[nH]c1C(=O)NNC(=S)Nc1ccccc1Br` [Compound 11, 4-(2-Bromophenyl)-1-(4-methylimidazol-5-oyl)thiosemicarbazide]?
Answer: viability at 24 h, 5 µg/mL [1]: 94.7%; viability at 24 h, 25 µg/mL [1]: 93%; viability at 24 h, 50 µg/mL [1]: 87.5%; viability at 24 h, 125 µg/mL [1]: 76.3%; viability at 24 h, 250 µg/mL [1]: 70%; viability at 24 h, 500 µg/mL [1]: 47.1%; viability at 24 h, 1000 µg/mL [1]: 29.8%; CC50 at 24 h [1]: 495 µg/mL (≈ 1400 µM); IC50 [2]: 27.6 µg/mL (≈ 78.1 µM); SR (selectivity ratio) [2]: 17.91; chromatographic logP [3]: 3.23; melting point: 205 to 207 °C

Question: What does the source list for `Cc1nc[nH]c1C(=O)NNC(=S)Nc1cccc(I)c1` [Compound 15, 4-(3-Iodophenyl)-1-(4-methylimidazol-5-oyl)thiosemicarbazide]?
Answer: viability at 24 h, 5 µg/mL [1]: 96.7%; viability at 24 h, 25 µg/mL [1]: 87.3%; viability at 24 h, 50 µg/mL [1]: 70.8%; viability at 24 h, 125 µg/mL [1]: 66.2%; viability at 24 h, 250 µg/mL [1]: 54%; viability at 24 h, 500 µg/mL [1]: 8.53%; viability at 24 h, 1000 µg/mL [1]: 8.49%; CC50 at 24 h [1]: 197 µg/mL (≈ 492 µM); IC50 [2]: 10.3 µg/mL (≈ 25.7 µM); SR (selectivity ratio) [2]: 19.16; chromatographic logP [3]: 3.98; melting point: 210 to 212 °C

Question: Which viability at 24 h, 5 µg/mL [1] does the source give for `Cc1nc[nH]c1C(=O)NNC(=S)Nc1ccc(I)cc1` [Compound 16, 4-(4-Iodophenyl)-1-(4-methylimidazol-5-oyl)thiosemicarbazide] here?
Answer: 96.7%

Question: What about the viability at 24 h, 25 µg/mL [1] of the same compound?
Answer: 84.4%

Question: And the viability at 24 h, 50 µg/mL [1]?
Answer: 66.2%

Question: What about the viability at 24 h, 125 µg/mL [1] of the same compound?
Answer: 68.1%

Question: What about the viability at 24 h, 250 µg/mL [1] of the same compound?
Answer: 49.9%

Question: What about the viability at 24 h, 500 µg/mL [1] of the same compound?
Answer: 16.3%

Question: And the viability at 24 h, 1000 µg/mL [1]?
Answer: 13.5%

Question: What about the CC50 at 24 h [1] of the same compound?
Answer: 195 µg/mL (≈ 486 µM)

Question: And the IC50 [2]?
Answer: 22 µg/mL (≈ 54.9 µM)

Question: What about the “SR (selectivity ratio)” value [2] of the same compound?
Answer: 8.86

Question: And the chromatographic logP [3]?
Answer: 3.95

Question: What about the melting point of the same compound?
Answer: 225 to 227 °C
